System: "epileptic-like" discharges from pyramidal cells
Assay: penicillin-induced "epileptic" hippocampus section preparation, electrophysiological model in vitro
Assay type: cell-based
Conditions: read-out: concentration at which "epileptic-like" discharges from pyramidal cells are inhibited

NCC(CC(=O)O)c1ccc(Cl)cc1 (stereo not shown) [baclofen]
minimal effective concentration: 6 µM

Reference: patent US5424441A, “N-aralkyl-and N-heteroaralkyl-aminoalkanephosphinic acids” (Ciba-Geigy Corporation, priority 1994, dated 1995)
